The target of one data set is T1, androgen receptor (AR) (Homo sapiens, UniProt P10275).
T1 sequence (P10275 1-920): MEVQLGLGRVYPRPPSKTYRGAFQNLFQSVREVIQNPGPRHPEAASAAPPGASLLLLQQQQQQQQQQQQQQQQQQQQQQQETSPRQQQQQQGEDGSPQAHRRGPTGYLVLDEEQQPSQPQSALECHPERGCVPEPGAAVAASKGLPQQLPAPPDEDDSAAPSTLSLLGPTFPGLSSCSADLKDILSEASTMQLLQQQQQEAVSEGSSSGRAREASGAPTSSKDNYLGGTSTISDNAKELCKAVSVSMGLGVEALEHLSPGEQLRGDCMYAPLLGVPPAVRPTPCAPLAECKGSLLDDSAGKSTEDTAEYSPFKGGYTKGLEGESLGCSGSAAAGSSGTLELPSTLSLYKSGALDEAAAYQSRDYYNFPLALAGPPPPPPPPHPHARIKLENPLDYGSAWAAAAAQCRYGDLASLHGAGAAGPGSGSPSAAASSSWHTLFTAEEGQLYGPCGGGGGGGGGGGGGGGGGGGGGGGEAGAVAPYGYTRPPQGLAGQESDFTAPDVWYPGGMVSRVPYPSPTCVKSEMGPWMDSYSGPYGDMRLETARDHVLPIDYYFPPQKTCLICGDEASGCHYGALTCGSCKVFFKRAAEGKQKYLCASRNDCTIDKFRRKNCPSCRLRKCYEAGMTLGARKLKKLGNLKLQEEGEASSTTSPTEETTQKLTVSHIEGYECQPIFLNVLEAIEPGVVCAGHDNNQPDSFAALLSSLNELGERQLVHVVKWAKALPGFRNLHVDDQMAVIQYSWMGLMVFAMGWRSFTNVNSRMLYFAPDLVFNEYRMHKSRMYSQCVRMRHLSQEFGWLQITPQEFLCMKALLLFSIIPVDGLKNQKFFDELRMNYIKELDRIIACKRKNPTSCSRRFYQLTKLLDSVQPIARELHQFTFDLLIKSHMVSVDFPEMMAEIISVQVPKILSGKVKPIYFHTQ
In words: AR antagonist luciferase gene reporter assay (AR plasmid pSVAR0 + MMTV-Luc, DHT at EC80).

Setting [1] is: Antagonist Activity in CV-1 IC50, luciferase reporter in AR-transfected cells, DHT at EC80, 24 h incubation, means ± SD of three independent experiments.
Where [2] appears, read: luciferase reporter in AR-transfected cells, DHT at EC80, 24 h, enzalutamide = 100, means ± SD of three independent experiments.

20 molecules from paper PMC9505067, “Synthesis of Hydantoin Androgen Receptor Antagonists and Study on Their Antagonistic Activity” (Molecules, 2022) can be followed below.

The term IC50 denotes the concentration that gives 50% inhibition. By melting point is commonly meant the temperature of the solid-liquid transition.

The structures appear in SMILES notation. Where two headings read alike, the source gives them in different places. Where only a bound is given, the exact number is not on record here.

In the case of `CC(=O)Nc1ccc(N2C(=O)N(c3ccc(C#N)c(C(F)(F)F)c3)C(=O)C2(C)CO)cc1` (stereo not drawn) [compound 10, N-(4-(3-(4-cyano-3-(trifluoromethyl)phenyl)-5-(hydroxymethyl)-5-methyl-2,4-dioxoimidazolidin-1-yl)phenyl)acetamide], the melting point was 124 to 126 °C. Also, the “Antagonist Activity in CV-1 Efficacy” value on androgen receptor (AR) was 84 ± 8.6%. Further, the IC50 on androgen receptor (AR) (setting [1]) is > 5000 nM.

`CC1(CO)C(=O)N(c2ccc(C#N)c(C(F)(F)F)c2)C(=O)N1c1ccccc1` (stereo not drawn) [7a, 4-(4-(hydroxymethyl)-4-methyl-2,5-dioxo-3-phenylimidazolidin-1-yl)-2-(trifluoromethyl)benzonitrile]: the melting point was 187 to 189 °C. Besides, the “Antagonist Activity in CV-1 Efficacy” value at androgen receptor (AR) worked out at 101 ± 15.1%. The concentration for half-maximal inhibition (IC50) on androgen receptor (AR) (setting [1]) was found to be 94.8 ± 12.8 nM.

As to `Cc1ccc(N2C(=O)N(c3ccc(C#N)c(C(F)(F)F)c3)C(=O)C2(C)CO)cc1` (stereo not drawn) [7b, 4-(4-(hydroxymethyl)-4-methyl-2,5-dioxo-3-(p-tolyl)imidazolidin-1-yl)-2-(trifluoromethyl)benzonitrile], the melting point lay in the range of 156 to 158 °C. Further, the “Antagonist Activity in CV-1 Efficacy” value at androgen receptor (AR) turned out to be 95 ± 12.3%. Moreover, the 50% inhibitory concentration (IC50) at androgen receptor (AR) (setting [1]) stood at 115 ± 17.6 nM.

On to `COC(=O)c1ccc(N2C(=S)N(c3ccc(C#N)c(C(F)(F)F)c3)C(=O)C2(C)CO)cc1` (stereo not drawn) [6j, methyl 4-(3-(4-cyano-3-(trifluoromethyl)phenyl)-5-(hydroxymethyl)-5-methyl-4-oxo-2-thioxoimidazolidin-1-yl)benzoate], for which the melting point was 168 to 170 °C. At androgen receptor (AR), the “Antagonist Activity in CV-1 Efficacy” value came to 95 ± 4.2%. For the same molecule, the IC50 on androgen receptor (AR) (setting [1]) was found to be 532 ± 58.2 nM.

On to `CN1CCC(Oc2ccc(N3C(=S)N(c4cnc(C#N)c(C(F)(F)F)c4)C(=O)C3(C)CO)cc2)CC1` (stereo not drawn) [19d, 5-(4-(hydroxymethyl)-4-methyl-3-(4-((1-methylpiperidin-4-yl)oxy)phenyl)-5-oxo-2-thioxoimidazolidin-1-yl)-3-(trifluoromethyl)picolinonitrile], for which the melting point lay within 119 to 121 °C. Also, the 50% inhibitory concentration (IC50) on androgen receptor (AR) was determined as 139 ± 28.1 nM. The “Antagonist Activity in CV-1 Efficacy” value at androgen receptor (AR) (setting [2]) worked out at 81.64 ± 5.92%.

`CNC(=O)c1ccc(N2C(=S)N(c3cnc(C#N)c(C(F)(F)F)c3)C(=O)C2(C)CO)cc1F` (stereo not drawn) [19c, 4-(3-(6-cyano-5-(trifluoromethyl)pyridin-3-yl)-5-(hydroxymethyl)-5-methyl-4-oxo-2-thioxoimidazolidin-1-yl)-2-fluoro-N-methylbenzamide] showed a melting point of 127 to 129 °C. Also, the IC50 at androgen receptor (AR) is 903 ± 602 nM. Further, the “Antagonist Activity in CV-1 Efficacy” value on androgen receptor (AR) (setting [2]) was 55.46 ± 14.74%.

As for `CC(=O)Nc1ccc(N2C(=S)N(c3ccc(C#N)c(C(F)(F)F)c3)C(=O)C2(C)CO)cc1` (stereo not drawn) [compound 9, N-(4-(3-(4-cyano-3-(trifluoromethyl)phenyl)-5-(hydroxymethyl)-5-methyl-4-oxo-2-thioxoimidazolidin-1-yl)phenyl)acetamide], the melting point lay in the range of 126 to 128 °C. Moreover, the “Antagonist Activity in CV-1 Efficacy” value at androgen receptor (AR) came out at 95 ± 3.1%. For the same molecule, the 50% inhibitory concentration (IC50) at androgen receptor (AR) (setting [1]) is 939 ± 124 nM.

The molecule `CC1(CO)C(=O)N(c2ccc(C#N)c(C(F)(F)F)c2)C(=S)N1c1ccc([N+](=O)[O-])cc1` (stereo not drawn) [6h, 4-(4-(hydroxymethyl)-4-methyl-3-(4-nitrophenyl)-5-oxo-2-thioxoimidazolidin-1-yl)-2-(trifluoromethyl)benzonitrile] yielded a melting point of 206 to 208 °C. On androgen receptor (AR) (setting [1]), the half-maximal inhibitory concentration (IC50) was found to be 79600 nM.

In the case of `CC1(CO)C(=O)N(c2ccc(C#N)c(C(F)(F)F)c2)C(=O)N1c1ccc(C(F)(F)F)cc1` (stereo not drawn) [7i, 4-(4-(hydroxymethyl)-4-methyl-2,5-dioxo-3-(4-(trifluoromethyl)phenyl)imidazolidin-1-yl)-2-(trifluoromethyl)benzonitrile], the melting point was in the range of 161 to 163 °C. Besides, the “Antagonist Activity in CV-1 Efficacy” value at androgen receptor (AR) is recorded as 99 ± 12.5%. Also, at androgen receptor (AR) (setting [1]), the concentration for half-maximal inhibition (IC50) stood at 149 ± 30.4 nM.

The molecule `CC1(CO)C(=O)N(c2ccc(C#N)c(C(F)(F)F)c2)C(=O)N1c1ccc(O)cc1` (stereo not drawn) [11b, 4-(4-(hydroxymethyl)-3-(4-hydroxyphenyl)-4-methyl-2,5-dioxoimidazolidin-1-yl)-2-(trifluoromethyl)benzonitrile] showed a melting point of 110 to 112 °C. For the same molecule, the “Antagonist Activity in CV-1 Efficacy” value at androgen receptor (AR) is 100 ± 3.4%. At androgen receptor (AR) (setting [1]), the 50% inhibitory concentration (IC50) stood at 2360 ± 1710 nM.

On to `CC1(CO)C(=O)N(c2ccc(C#N)c(C(F)(F)F)c2)C(=O)N1c1ccc(Cl)cc1` (stereo not drawn) [7d, 4-(3-(4-chlorophenyl)-4-(hydroxymethyl)-4-methyl-2,5-dioxoimidazolidin-1-yl)-2-(trifluoromethyl)benzonitrile], for which the melting point fell in the range of 152 to 154 °C. In addition, the “Antagonist Activity in CV-1 Efficacy” value at androgen receptor (AR) was 94 ± 9.7%. Moreover, on androgen receptor (AR) (setting [1]), the IC50 came out at 68.6 ± 22.4 nM.

In turn, `CC1(CO)C(=O)N(c2ccc(C#N)c(C(F)(F)F)c2)C(=S)N1c1ccc(Br)cc1` (stereo not drawn) [6e, 4-(3-(4-bromophenyl)-4-(hydroxymethyl)-4-methyl-5-oxo-2-thioxoimidazolidin-1-yl)-2-(trifluoromethyl)benzonitrile] yielded a melting point of 206 to 208 °C. In addition, the “Antagonist Activity in CV-1 Efficacy” value at androgen receptor (AR) is recorded as 86 ± 6.5%. Besides, the IC50 at androgen receptor (AR) (setting [1]) was 117 ± 16.3 nM.

With `CC1(CO)C(=O)N(c2ccc(C#N)c(C(F)(F)F)c2)C(=O)N1c1ccc([N+](=O)[O-])cc1` (stereo not drawn) [7h, 4-(4-(hydroxymethyl)-4-methyl-3-(4-nitrophenyl)-2,5-dioxoimidazolidin-1-yl)-2-(trifluoromethyl)benzonitrile], the melting point was in the range of 160 to 162 °C. At androgen receptor (AR), the “Antagonist Activity in CV-1 Efficacy” value stood at 93 ± 9.3%. Further, the 50% inhibitory concentration (IC50) at androgen receptor (AR) (setting [1]) came out at 48.9 ± 12.7 nM.

Molecule `CC1(CO)C(=O)N(c2ccc(C#N)c(C(F)(F)F)c2)C(=S)N1c1ccc(O)cc1` (stereo not drawn) [11a, 4-(4-(hydroxymethyl)-3-(4-hydroxyphenyl)-4-methyl-5-oxo-2-thioxoimidazolidin-1-yl)-2-(trifluoromethyl)benzonitrile] registered a melting point of 203 to 205 °C. Further, the “Antagonist Activity in CV-1 Efficacy” value on androgen receptor (AR) was 90 ± 7.5%. Also, the IC50 on androgen receptor (AR) (setting [1]) is 3640 ± 932 nM.

Take `CN1CCC(Oc2ccc(N3C(=S)N(c4ccc(C#N)c(C(F)(F)F)c4)C(=O)C3(C)CO)cc2)CC1` (stereo not drawn) [6l, 4-(4-(hydroxymethyl)-4-methyl-3-(4-((1-methylpiperidin-4-yl)oxy)phenyl)-5-oxo-2-thioxoimidazolidin-1-yl)-2-(trifluoromethyl)benzonitrile]: the melting point fell in the range of 117 to 119 °C. For the same molecule, at androgen receptor (AR), the “Antagonist Activity in CV-1 Efficacy” value turned out to be 92 ± 2.9%. For the same molecule, the IC50 on androgen receptor (AR) (setting [1]) turned out to be 337 nM.

Regarding `CC1(CO)C(=O)N(c2ccc(C#N)c(C(F)(F)F)c2)C(=O)N1c1ccc(F)cc1` (stereo not drawn) [7c, 4-(3-(4-fluorophenyl)-4-(hydroxymethyl)-4-methyl-2,5-dioxoimidazolidin-1-yl)-2-(trifluoromethyl)benzonitrile], the melting point lay within 208 to 210 °C. For the same molecule, the “Antagonist Activity in CV-1 Efficacy” value on androgen receptor (AR) was found to be 94 ± 14.6%. Moreover, at androgen receptor (AR) (setting [1]), the IC50 was determined as 67.3 ± 15.5 nM.

As for `CC1(CO)C(=O)N(c2ccc(C#N)c(C(F)(F)F)c2)C(=S)N1c1ccc(Cl)cc1` (stereo not drawn) [6d, 4-(3-(4-chlorophenyl)-4-(hydroxymethyl)-4-methyl-5-oxo-2-thioxoimidazolidin-1-yl)-2-(trifluoromethyl)benzonitrile], the melting point lay within 205 to 207 °C. Also, the “Antagonist Activity in CV-1 Efficacy” value at androgen receptor (AR) came out at 96 ± 3.8%. Besides, at androgen receptor (AR) (setting [1]), the IC50 amounted to 79.3 ± 13.2 nM.

For the molecule `CC1(CO)C(=O)N(c2ccc(C#N)c(C(F)(F)F)c2)C(=O)N1c1ccc(C#N)cc1` (stereo not drawn) [7g, 4-(3-(4-cyanophenyl)-4-(hydroxymethyl)-4-methyl-2,5-dioxoimidazolidin-1-yl)-2-(trifluoromethyl)benzonitrile], the “Antagonist Activity in CV-1 Efficacy” value at androgen receptor (AR) was found to be 98 ± 11.6%. For the same molecule, the 50% inhibitory concentration (IC50) on androgen receptor (AR) (setting [1]) stood at 61 ± 6.1 nM.

`CC1(CO)C(=O)N(c2ccc(C#N)c(C(F)(F)F)c2)C(=S)N1c1ccc(C#N)cc1` (stereo not drawn) [6g, 4-(3-(4-cyanophenyl)-4-(hydroxymethyl)-4-methyl-5-oxo-2-thioxoimidazolidin-1-yl)-2-(trifluoromethyl)benzonitrile] displayed a melting point of 234 to 236 °C. Moreover, at androgen receptor (AR), the “Antagonist Activity in CV-1 Efficacy” value turned out to be 102 ± 15.5%. For the same molecule, the concentration for half-maximal inhibition (IC50) at androgen receptor (AR) (setting [1]) is 338 ± 44.7 nM.

On to `CNC(=O)c1ccc(N2C(=S)N(c3ccc(C#N)c(C(F)(F)F)c3)C(=O)C2(C)CO)cc1F` (stereo not drawn) [6k, 4-(3-(4-cyano-3-(trifluoromethyl)phenyl)-5-(hydroxymethyl)-5-methyl-4-oxo-2-thioxoimidazolidin-1-yl)-2-fluoro-N-methylbenzamide], for which the “Antagonist Activity in CV-1 Efficacy” value at androgen receptor (AR) was 88 ± 3.5%. In addition, the IC50 at androgen receptor (AR) (setting [1]) amounted to 126 nM.
